US20080221088A1, “3,4-Substituted Thiazoles as Ampk Activators” (priority 2005, published 2008)

Experiments:
[1] = test system: AMPK; assay: AMPK activation potential, cell based ELISA with p-AMPK specific antibody, L6 muscle cells; settings: 24 hours incubation, normalized to metformin at 2 mM as 100%
Protocol: (§1) AMPK activation potential percentages are obtained by normalizing the values obtained at the concentrations in the range of 2 nM-10 μM with that of metformin by considering the values obtained for metformin at 2 mM concentrations as 100%.
(§2) AMPK activation potential of the compounds of formula (I) was evaluated using a cell based ELISA approach. Skeletal muscle (L6 muscle) and hepatoma (Hep G2) liver cells were cultured for 48 hours prior to drug addition at various concentrations. Twenty four (24) hours later, the cells were fixed and the ELISA plate developed following standard protocol using p-AMPK specific antibody.
(§3) Various cell lines such as HepG2 and L6 were revived from glycerol stocks (ATCC). The cells were maintained in a T 75 culture flask-containing medium (DMEM+10% fetal calf serum). On reaching a confluence of 70 to 80%, the cells was seeded in a 96 well plate at a density of 10×10^3 cells per well in DMEM+10% FCS medium. The plates are then incubated at 37° C. with 5% CO2 for 48 hours. Various concentrations of drugs were prepared in DMSO and diluted to required concentration with the medium and incubated at 37° C. with 5% CO2 for 24 hours. Cells were fixed with 4% formaldehyde in PBS for 30 minutes at 25-35° C. and washed three times with PBS containing 0.1% Triton X-100. Endogenous peroxidase was quenched with 0.6% H2O2 in PBS-T for 30 minutes and washed three times in PBS-T. Then the cells were blocked with 10% FCS in PBS-T for 1 hour. The cells were incubated for 8-12 hours with various concentrations of primary antibody in PBS-T containing 5% BSA at 4° C. The cells were then washed three times with PBS-T for 5 minutes and incubated with secondary antibody (HRP conjugated 1:500 in PBS-T with 5% BSA for 1 hour at 25-35° C. The cells were washed three times with PBS-T for 5 minutes and twice with PBS. The cells were incubated with 100 μl TMB/H2O2 color developing solution for 15 minutes and the reaction was stopped with 50 μl of 1M H2SO4. Then the plate was read at 460 nm using ELISA plate reader.
(§4) (AMPK activation potential percentages are obtained by normalizing the values obtained at 10 μM concentration with that of metformin by considering the values obtained for metformin at 2 mM concentrations as 100%).

[2] = test system: AMPK; assay: AMPK activation potential, cell based ELISA with p-AMPK specific antibody, Hep G2 cells; settings: HepG-2 cells, 24 hours incubation, normalized to metformin at 2 mM as 100%
Protocol: as §1, §2, §3, §4

SMILES	melting point [°C]	AMPK % activation (at 10 μM) L6 muscle cells [1] [%]	AMPK % activation (at 10 μM) HepG-2 muscle cells [2] [%]
CSc1ccc(NC(=O)Cc2csc(Nc3ccc(Cl)c(C(F)(F)F)c3)n2)cc1 [Example 4-e, 2-[2-(4-Chloro-3-trifluoromethyl-phenylamino)-thiazol-4-yl]-N-(4-methylsulfanyl-phenyl)-acetamide]	151 to 152		
Cc1ccc(Nc2nc(CC(=O)O)cs2)cc1F [Example 2-e, [2-(3-Fluoro-4-methyl-phenylamino)-thiazol-4-yl]-acetic acid]	147 to 148		
Cc1ccc(Nc2nc(CC(=O)O)cs2)cc1Cl [Example 2-b, [2-(3-Chloro-4-methyl-phenylamino)-thiazol-4-yl]-acetic acid]	142 to 144		
CC(C)(CC(=O)O)c1csc(Nc2ccc(Cl)c(C(F)(F)F)c2)n1 [Example 2-j, 3-[2-(4-Chloro-3-trifluoromethyl-phenylamino)-thiazol-4-yl]-3-methyl-butyricacid]	160 to 165		
O=C(O)c1csc(Nc2ccc(Cl)c(C(F)(F)F)c2)n1 [Example 5, 2-(4-Chloro-3-trifluoromethyl-phenylamino)-thiazole-4-carboxylic acid]	254 to 256		
O=C(Cc1csc(Nc2ccc(Cl)c(C(F)(F)F)c2)n1)Nc1ccncc1 [Example 4-d, 2-[2-(4-Chloro-3-trifluoromethyl-phenylamino)-thiazol-4-yl]-N-pyridin-4-yl-acetamide]	178 to 180		
O=C(Cc1csc(Nc2ccc(Cl)c(C(F)(F)F)c2)n1)N1CCSCC1 [Example 4-j, 2-[2-(4-Chloro-3-trifluoromethyl-phenylamino)-thiazol-4-yl]-1-thiomorpholin-4-yl-ethanone]	185 to 187		
O=C(O)Cc1csc(Nc2ccc(Br)c(F)c2)n1 [Example 2-g, [2-(4-Bromo-3-fluoro-phenylamino)-thiazol-4-yl]-acetic acid]	176 to 177		
COc1ccc(CNC(=O)Cc2csc(Nc3ccc(Cl)c(C(F)(F)F)c3)n2)cc1 [Example 4-k, 2-[2-(4-Chloro-3-trifluoromethyl-phenylamino)-thiazol-4-yl]-N-(4-methoxy-benzyl)-acetamide]	65 to 70		
NNC(=O)Cc1csc(Nc2ccc(Cl)c(C(F)(F)F)c2)n1 [Example 3-b, [2-(4-Chloro-3-trifluoromethyl-phenylamino)-thiazol-4-yl]-acetic acid hydrazide]	115 to 118		
O=C(O)Cc1csc(Nc2ccc(F)c(C(F)(F)F)c2)n1 [Example 2-h, [2-(4-Fluoro-3-trifluoromethyl-phenylamino)-thiazol-4-yl]-acetic acid]	167 to 169		
O=C(Cc1csc(Nc2ccc(Cl)c(C(F)(F)F)c2)n1)Nc1ccc(F)cc1 [Example 4-c, 2-[2-(4-Chloro-3-trifluoromethyl-phenylamino)-thiazol-4-yl]-N-(4-fluoro-phenyl)-acetamide]	146 to 148		
CC(=O)c1ccc(NC(=O)Cc2csc(Nc3ccc(Cl)c(C(F)(F)F)c3)n2)cc1 [Example 4-b, N-(4-Acetyl-phenyl)-2-[2-(4-chloro-3-trifluoromethyl-phenylamino)-thiazol-4-yl]-acetamide]	194 to 195		
CCOC(=O)Cc1csc(Nc2ccc(Br)c(C(F)(F)F)c2)n1 [Example 1-a, [2-(4-Bromo-3-trifluoromethyl-phenylamino)-thiazol-4-yl]-acetic acid ethyl ester]	161 to 164		
CNC(=O)Cc1csc(Nc2ccc(Cl)c(C(F)(F)F)c2)n1 [Example 3, 2-[2-(4-Chloro-3-trifluoromethyl-phenylamino)-thiazol-4-yl]-N-methyl-acetamide]	148 to 150	101.20	102.14
O=C(Cc1csc(Nc2ccc(Cl)c(C(F)(F)F)c2)n1)Nc1ccc(Cl)c(C(F)(F)F)c1 [Example 4, N-(4-Chloro-3-trifluoromethyl-phenyl)-2-[2-(4-chloro-3-trifluoromethyl-phenylamino)-thiazol-4-yl]-acetamide]	108 to 112		
O=C(Cc1csc(Nc2ccc(Cl)c(C(F)(F)F)c2)n1)Nc1nccs1 [Example 4-g, 2-[2-(4-Chloro-3-trifluoromethyl-phenylamino)-thiazol-4-yl]-N-thiazol-2-yl-acetamide]	196 to 198		
Cc1ccc(Nc2nc(CC(=O)O)cs2)cc1C(F)(F)F [Example 2-i, [2-(4-Methyl-3-trifluoromethyl-phenylamino)-thiazol-4-yl]-acetic acid]	154 to 155		
O=C(O)Cc1csc(Nc2ccc(Cl)c(C(F)(F)F)c2)n1 [Example 2, [2-(4-Chloro-3-trifluoromethyl-phenylamino)-thiazol-4-yl]-acetic acid]		91.56	102.69
CC(=O)Nc1ccc(NC(=O)Cc2csc(Nc3ccc(Cl)c(C(F)(F)F)c3)n2)cc1 [Example 4-f, N-(4-Acetylamino-phenyl)-2-[2-(4-chloro-3-trifluoromethyl-phenylamino)-thiazol-4-yl]-acetamide]	262 to 263		
COc1ccc(NC(=O)Cc2csc(Nc3ccc(Cl)c(C(F)(F)F)c3)n2)cc1 [Example 4-a, 2-[2-(4-Chloro-3-trifluoromethyl-phenylamino)-thiazol-4-yl]-N-(4-methoxy-phenyl)-acetamide]	179 to 180		
O=C(Cc1csc(Nc2ccc(Cl)c(C(F)(F)F)c2)n1)Nc1cccnc1 [Example 4-h, 2-[2-(4-Chloro-3-trifluoromethyl-phenylamino)-thiazol-4-yl]-N-pyridin-3-yl-acetamide]	191 to 192		
O=C(Cc1csc(Nc2ccc(Cl)c(C(F)(F)F)c2)n1)N1CCOCC1 [Example 4-i, 2-[2-(4-Chloro-3-trifluoromethyl-phenylamino)-thiazol-4-yl]-1-morpholin-4-yl-ethanone]	210 to 211		
CCOC(=O)Cc1csc(Nc2ccc(Cl)c(C(F)(F)F)c2)n1 [Example 1, [2-(4-Chloro-3-trifluoromethyl-phenylamino)-thiazol-4-yl]-acetic acid ethyl ester]	150 to 152	88.2	89
O=C(O)Cc1csc(Nc2ccc(Br)c(C(F)(F)F)c2)n1 [Example 2a, [2-(4-Bromo-3-trifluoromethyl-phenylamino)-thiazol-4-yl]-acetic acid]		83.4	91.3
NC(=O)Cc1csc(Nc2ccc(Cl)c(C(F)(F)F)c2)n1 [Example 3c, 2-[2-(4-Chloro-3-trifluoromethyl-phenylamino)-thiazol-4-yl]-acetamide]	205 to 207	88.1	102.43
